From ChEMBL document CHEMBL1127685, “A novel 3-substituted benzazepinone growth hormone secretagogue (L-692,429)” (1994)

Organism: Rattus norvegicus
Assay: In vitro dose required for stimulation of GH release from rat pituitary cells
Assay type: functional
Settings: Pituitary gland cell, read-out: ED50 (the source's name)

In order of falling EC50:
1. CC(C)(N)CC(=O)NC1CCCc2ccccc2N(Cc2ccc(-c3ccccc3-c3nn[nH]n3)cc2)C1=O (stereo not given)  8000 nM
2. CC(C)(N)CC(=O)NC1CCc2ccccc2N(Cc2ccc(-c3ccccc3C(=O)O)cc2)C1=O (stereo not given)  3200 nM
3. CC(C)(N)CC(=O)NC1Cc2ccccc2N(Cc2ccc(-c3ccccc3-c3nn[nH]n3)cc2)C1=O (stereo not given)  2000 nM
4. CC(C)(N)CC(=O)NC1CCc2ccccc2N(Cc2ccc(-c3ccccc3-c3nn[nH]n3)cc2)C1=O [L-158432]  160 nM
5. CC(C)(N)CC(=O)N[C@@H]1CCc2ccccc2N(Cc2ccc(-c3ccccc3-c3nn[nH]n3)cc2)C1=O  60 nM
